Assay results from US10745356B2, “Compositions and methods for treating tuberculosis” (priority 2015, dated 2020).
Values after ≈ are worked out from the molar mass of the structure shown. Where two headings read alike, the source gives them in different places.

Tested on: M. tuberculosis strains
Assay: Minimum Inhibitory Concentration (MIC) against M. tuberculosis strains, resazurin microtiter plate assay
Format: cell-based, Mycobacterium tuberculosis
[1] = Mycobacterium tuberculosis, Table 1A, C2 SAR with fluorophenyl, Middlebrook 7H9, 37° C. six days, resazurin fluorescence after 48 hours, read-out: MIC90
[2] = Mycobacterium tuberculosis, Table 2, C4 SAR, Middlebrook 7H9, 37° C. six days, resazurin fluorescence after 48 hours, read-out: MIC90
[3] = Mycobacterium tuberculosis, Table 3, C4 SAR, Middlebrook 7H9, 37° C. six days, resazurin fluorescence after 48 hours, read-out: MIC90
[4] = Mycobacterium tuberculosis, Table 4, C6 SAR, Middlebrook 7H9, 37° C. six days, resazurin fluorescence after 48 hours, read-out: MIC90

SMILES: Cc1cc2nc(C(=O)NCCO)cc(-c3ccccc3F)c2c(C)c1-c1ccncc1 [Compound 38]
- MIC90 [1]: 1.6 µM (≈ 0.665 µg/mL)

SMILES: Cc1cc2nc(C(=O)N[C@H](C)CO)cc(-c3ccccc3F)c2c(C)c1-c1ccncc1 [Compound 39]
- MIC90 [1]: 0.6 µM (≈ 0.258 µg/mL)

SMILES: Cc1cc2nc(C(=O)N[C@@H](C)CO)cc(-c3ccccc3F)c2c(C)c1-c1ccncc1 [Compound 40]
- MIC90 [1]: 0.3 µM (≈ 0.129 µg/mL)

SMILES: Cc1cc2nc(C(=O)N[C@H](C)CCO)cc(-c3ccccc3F)c2c(C)c1-c1ccncc1 [Compound 41]
- MIC90 [1]: 0.16 µM (≈ 0.071 µg/mL)

SMILES: Cc1cc2nc(C(=O)N[C@@H](C)CCO)cc(-c3ccccc3F)c2c(C)c1-c1ccncc1 [Compound 42]
- MIC90 [1]: 0.16 µM (≈ 0.071 µg/mL)

SMILES: Cc1cc2nc(C(=O)NC[C@H](O)CO)cc(-c3ccccc3F)c2c(C)c1-c1ccncc1 [Compound 43]
- MIC90 [1]: 0.8 µM (≈ 0.356 µg/mL)

SMILES: Cc1cc2nc(C(=O)NC[C@@H](O)CO)cc(-c3ccccc3F)c2c(C)c1-c1ccncc1 [Compound 44]
- MIC90 [1]: 0.6 µM (≈ 0.267 µg/mL)

SMILES: Cc1cc2nc(C(=O)NC3CCN(C)C3)cc(-c3ccccc3F)c2c(C)c1-c1ccncc1 (centres unmarked) [Compound 45]
- MIC90 [1]: 1.25 µM (≈ 0.568 µg/mL)

SMILES: Cc1cc2nc(C(=O)NC3CCN(C)CC3)cc(-c3ccccc3F)c2c(C)c1-c1ccncc1 [Compound 46]
- MIC90 [1]: 1.25 µM (≈ 0.586 µg/mL)

SMILES: Cc1cc2nccc(-c3ccccc3)c2c(C)c1-c1ccc(CN2CCOCC2)cc1 [Compound 47]
- MIC90 (Mycobacterium tuberculosis): 0.45 µM (≈ 0.184 µg/mL)
- MIC90 (Table 4, C6 SAR, Middlebrook 7H9, 37° C. six days, resazurin fluorescence after 48 hours, read-out: MIC90): 0.45 µM (≈ 0.184 µg/mL)

SMILES: Cc1cc2nccc(-c3ccccc3Cl)c2c(C)c1-c1ccc(CN2CCOCC2)cc1 [Compound 48]
- MIC90 (Mycobacterium tuberculosis): 0.3 µM (≈ 0.133 µg/mL)

SMILES: Cc1cc2nccc(-c3cccc(Cl)c3)c2c(C)c1-c1ccc(CN2CCOCC2)cc1 [Compound 49]
- MIC90 (Mycobacterium tuberculosis): 0.6 µM (≈ 0.266 µg/mL)

SMILES: Cc1cc2nccc(-c3ccc(Cl)cc3)c2c(C)c1-c1ccc(CN2CCOCC2)cc1 [Compound 50]
- MIC90 (Mycobacterium tuberculosis): 80 µM (≈ 35.4 µg/mL)

SMILES: COc1cccc(-c2ccnc3cc(C)c(-c4ccc(CN5CCOCC5)cc4)c(C)c23)c1OC [Compound 51]
- MIC90 (Mycobacterium tuberculosis): > 40 µM

SMILES: Cc1cc2nccc(-c3ccccc3C#N)c2c(C)c1-c1ccc(CN2CCOCC2)cc1 [Compound 52]
- MIC90 [2]: 2.5 µM (≈ 1.08 µg/mL)

SMILES: COc1cccc(-c2ccnc3cc(C)c(-c4ccc(CN5CCOCC5)cc4)c(C)c23)c1Cl [Compound 53]
- MIC90 [2]: 10 µM (≈ 4.73 µg/mL)

SMILES: CCN(CC)Cc1ccccc1-c1ccnc2cc(C)c(-c3ccc(CN4CCOCC4)cc3)c(C)c12 [Compound 54]
- MIC90 [2]: 2.5 µM (≈ 1.23 µg/mL)

SMILES: Cc1cc2nccc(-c3ccccc3CO)c2c(C)c1-c1ccc(CN2CCOCC2)cc1 [Compound 55]
- MIC90 [2]: 2.5 µM (≈ 1.1 µg/mL)

SMILES: Cc1cc2nccc(-c3ccccc3C(N)=O)c2c(C)c1-c1ccc(CN2CCOCC2)cc1 [Compound 56]
- MIC90 [2]: 20 µM (≈ 9.03 µg/mL)

SMILES: Cc1cc2nccc(-c3ccccc3C(=O)O)c2c(C)c1-c1ccc(CN2CCOCC2)cc1 [Compound 57]
- MIC90 (Mycobacterium tuberculosis): 40 µM (≈ 18.1 µg/mL)

SMILES: Cc1cccc(C)c1-c1ccnc2cc(C)c(-c3ccc(CN4CCOCC4)cc3)c(C)c12 [Compound 58]
- MIC90 (Mycobacterium tuberculosis): 5 µM (≈ 2.18 µg/mL)

SMILES: COc1ccncc1-c1ccnc2cc(C)c(-c3ccc(CN4CCOCC4)cc3)c(C)c12 [Compound 59]
- MIC90 [2]: 2.5 µM (≈ 1.1 µg/mL)

SMILES: COc1ncccc1-c1ccnc2cc(C)c(-c3ccc(CN4CCOCC4)cc3)c(C)c12 [Compound 60]
- MIC90 [2]: 2.5 µM (≈ 1.1 µg/mL)

SMILES: Cc1cc(-c2ccnc3cc(C)c(-c4ccc(CN5CCOCC5)cc4)c(C)c23)n(C)n1 [Compound 61]
- MIC90 [2]: > 40 µM

SMILES: Cc1cc2nccc(-c3cccnc3C#N)c2c(C)c1-c1ccc(CN2CCOCC2)cc1 [Compound 62]
- MIC90 (Mycobacterium tuberculosis): 7.5 µM (≈ 3.26 µg/mL)

SMILES: Cc1cc2nccc(-c3ccnn3C)c2c(C)c1-c1ccc(CN2CCOCC2)cc1 [Compound 63]
- MIC90 (Mycobacterium tuberculosis): 2.2 µM (≈ 0.908 µg/mL)

SMILES: Cc1cc2nccc(-c3cncnc3)c2c(C)c1-c1ccc(CN2CCOCC2)cc1 [Compound 64]
- MIC90 [2]: 2.5 µM (≈ 1.03 µg/mL)

SMILES: Cc1cc2nccc(-c3cncnc3C)c2c(C)c1-c1ccc(CN2CCOCC2)cc1 [Compound 65]
- MIC90 [2]: 5 µM (≈ 2.12 µg/mL)

SMILES: CNC(=O)c1cc(-c2cccc(Cl)c2)c2c(C)c(-c3ccncc3)c(C)cc2n1 [Compound 66]
- MIC90 (Mycobacterium tuberculosis): 2.5 µM (≈ 1 µg/mL)

SMILES: CNC(=O)c1cc(-c2ccc(Cl)cc2)c2c(C)c(-c3ccncc3)c(C)cc2n1 [Compound 67]
- MIC90 (Mycobacterium tuberculosis): 40 µM (≈ 16.1 µg/mL)

SMILES: CNC(=O)c1cc(-c2cncnc2)c2c(C)c(-c3ccncc3)c(C)cc2n1 [Compound 68]
- MIC90 [3]: 10 µM (≈ 3.69 µg/mL)

SMILES: CNC(=O)c1cc(N2CCCCC2)c2c(C)c(-c3ccncc3)c(C)cc2n1 [Compound 69]
- MIC90 (Mycobacterium tuberculosis): 5 µM (≈ 1.87 µg/mL)

SMILES: CNC(=O)c1cc(N2CCOCC2)c2c(C)c(-c3ccncc3)c(C)cc2n1 [Compound 70]
- MIC90 [3]: 20 µM (≈ 7.53 µg/mL)

SMILES: CNC(=O)c1cc(N2CCCC2)c2c(C)c(-c3ccncc3)c(C)cc2n1 [Compound 71]
- MIC90 [3]: > 50 µM

SMILES: Cc1cc2nccc(-c3ccccc3)c2c(C)c1-c1ccncc1 [Compound 72]
- MIC90 [4]: 5 µM (≈ 1.55 µg/mL)

SMILES: Cc1cc2nccc(-c3ccccc3)c2c(C)c1-c1cncnc1 [Compound 73]
- MIC90 [4]: 40 µM (≈ 12.5 µg/mL)

SMILES: Cc1cc2nccc(-c3ccccc3)c2c(C)c1-c1cnco1 [Compound 74]
- MIC90 [4]: 31 µM (≈ 9.31 µg/mL)
